Earlier results on 1 molecule are cited in paper PMC4206604 (Journal of pharmaceutical sciences, 2014).

For this data set, the target named is T1, NTCP (Homo sapiens, UniProt Q14973).
T1 sequence (Q14973 1-349): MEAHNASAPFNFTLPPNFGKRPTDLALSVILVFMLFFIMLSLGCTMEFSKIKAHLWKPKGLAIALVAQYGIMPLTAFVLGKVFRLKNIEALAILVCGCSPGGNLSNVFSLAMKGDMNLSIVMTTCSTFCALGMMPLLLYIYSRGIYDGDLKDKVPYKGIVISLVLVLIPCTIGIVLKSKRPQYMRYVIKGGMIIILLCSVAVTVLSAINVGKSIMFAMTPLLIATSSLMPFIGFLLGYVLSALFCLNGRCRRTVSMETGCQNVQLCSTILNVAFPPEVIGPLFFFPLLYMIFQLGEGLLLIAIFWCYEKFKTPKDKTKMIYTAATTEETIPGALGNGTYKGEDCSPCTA
To be noted: read-out: NTCP Km; same cell line.

SMILES strings stand for the structures.

In general, Km refers to the substrate concentration at which the rate is half of its maximum. For `C[C@H](CCC(=O)NCCS(=O)(=O)O)[C@H]1CC[C@H]2[C@@H]3[C@H](O)C[C@@H]4C[C@H](O)CC[C@]4(C)[C@H]3C[C@H](O)[C@]12C` [taurocholate], the Km is 5.31 µM.
